Experimental data: the NIST ThermoML archive (doi:10.1016/j.jct.2015.07.047)

Settings: Liquid, Closed cell (Static) method

Cl[SiH](Cl)Cl [trichlorosilane]
Settings	vapor or sublimation pressure [kPa]
313.34 K	134.1
323.33 K	183.5
333.17 K	245
343 K	321
352.96 K	414.5
362.96 K	528.8

Cl[SiH2]Cl [dichlorosilane]
Settings	vapor or sublimation pressure [kPa]
313.36 K	290.6
323.35 K	384.1
333.19 K	496.6
343.04 K	631.7
352.98 K	793.4
362.94 K	982.4

Cl[Si](Cl)(Cl)Cl [silicon tetrachloride]
Settings	vapor or sublimation pressure [kPa]
318.27 K	66.7
328.25 K	94
338.31 K	129.8
348.08 K	172.9
358.17 K	228.4
368.17 K	295.3
